From PMC10539329, “NLRP6 potentiates PI3K/AKT signalling by promoting autophagic degradation of p85α to drive tumorigenesis” (Nature Communications, 2023)

Experiments:
purified NLRP6 = assay: ELISA, binding of HRP-conjugated peptide to purified NLRP6; details: HRP-conjugated peptide on NLRP6, 1 h, absorbance 450 nm
Experimental: (§1) DNA encoding full-length NLRP6 was codon optimized and chemically synthesized by Genewiz (Soochow, China). The DNA sequence was subcloned into NdeI-XhoI sites of a pDB-His-MBP vector (kindly given by Pro. Chenggui Han, China Agricultural University, Beijing, China). Recombinant NLRP6 protein was expressed and purified following previous reports, with slight modifications. Briefly, the protein was expressed in E. coli (DE3) at 16 °C with 0.5 mM IPTG induction overnight. Then, the protein was purified by Ni affinity and gel filtration chromatography. The p85α WT and p85α mutant sequences were chemically synthesized and subcloned into BamHI-XhoI sites of a pGEX-6P-1 plasmid by GenScript (Nanjing, China). The E. coli (DE3) transformed with the plasmids were grown in LB medium at 37 °C. The culture medium was supplemented with 0.5 mM IPTG followed by incubation at 16 °C for 16–18 h. The proteins were purified by glutathione-affinity chromatography (Smart-Life Sciences, Changzhou, China) followed by gel filtration chromatography (Cytiva, MA, USA) using PBS. The protein extinction coefficient was calculated by ProtParam, and the protein concentration was determined by the ultraviolet spectrophotometry method.
(§2) The 96-well plate was coated with bovine serum albumin (BSA) or purified NLRP6. HRP-conjugated PepC or HRP-conjugated Pep9 was incubated with BSA or NLRP6 for 1 h, and the unbound peptide was washed away. The HRP substrate was added, and the absorbance was detected at 450 nm. For the competitive ELISA, the 96-well plate was coated with purified p85α. The binding of NLRP6 to p85α competed with 10 μM PepC or 5 μM, 10 μM, 20 μM Pep9 for 1 h.

U251 cells = assay: Cell proliferation / viability assay, U251 (PTEN deficient); assay type: cell-based, Human; details: Supplementary Figure 8i
Experimental: (§3) Cells were seeded into 12-well plates at a density of 1 × 10^4 cells per well. Manual cell counting was carried out at the indicated times using trypan blue and a haemocytometer.
(§4) To determine the antitumour effect of the peptide in vitro, the peptide was incubated with cells for 24 h when the cells were grown to approximately 80% confluence. Cell viability was measured at the indicated time points. The cell lysates were collected for immunoprecipitation as described above. To determine the antitumour effect of the peptide in vivo, the peptide was stereotactically injected using identical coordinates of tumour implantation in 3 μl of PBS. Briefly, 3 weeks after intracranial tumour cell implantation, mice with similar tumour sizes and similar weights were selected and randomly arranged into five groups (n = 6): PBS, PepC (0.25 mg/kg TAT-PepC per injection), Pep9 low dose (Pep9 L, 0.05 mg/kg TAT-Pep9 per injection), Pep9 medium dose (Pep9 M, 0.1 mg/kg TAT-Pep9 per injection), and Pep9 high dose (Pep9 H, 0.25 mg/kg TAT-Pep9 per injection). Each mouse received intratumoural injection every 10 days (at Day 21, Day 31, Day 41, and Day 51), and tumour growth was monitored at Day 21, Day 41, and Day 56. The experiment was terminated at Day 80, and all the mice (if they were alive) were sacrificed as previously described.

LN229 cells = assay: Cell proliferation / viability assay, LN229; assay type: cell-based, Human; details: TAT-peptide
Experimental: as §3, §4

HS683 cells = assay: Cell proliferation / viability assay, HS683; assay type: cell-based, Human; details: Supplementary Figure 8f
Experimental: as §3, §4

[1] = tested on: nude mice with intracranially implanted tumour cells; assay: Survival of nude mice with intracranial tumour after intratumoural peptide; assay type: in vivo, BALB/c nude mice; details: 0.25 mg/kg per injection (PepC, Pep9 H)
Experimental: BALB/c nude mice were maintained and bred in a specific-pathogen free (SPF) environment, adhering to standard conditions of temperature (20–26 °C) and humidity (40–70%). They were subjected to a strict 12-h light cycle, with lights on at 08:00 a.m. and off at 08:00 p.m. No limitations were imposed on the sex of the experimental animals involved in this study. Cells expressing firefly luciferase mixed with Matrigel (Corning, NY, USA) were intracranially injected into 5- to 6-week-old female athymic nude mice. The intracranial injection point was at the cerebral cortex, 1 mm prior to coronal suture, 1 mm on the right side of the centreline, and 3 mm below the dura mater. Appropriate medications were provided to reduce pain. To monitor intracranial tumour growth, the animals were intraperitoneally injected with D-luciferin (Yeasen, #40902ES01) and anaesthetized with isoflurane. The images were captured using an In Vivo MS FX pro Imaging System (Bruker, MA, USA) or IVIS Lumina imaging station (Perkin Elmer, MA, USA). The results were reported as the total flux (photons/second). The mice were sacrificed at the indicated time points. The brains were removed, fixed in 4% paraformaldehyde, and embedded in paraffin.
as §4

NLRP6/p85α interaction = assay: Competitive ELISA, NLRP6 binding to p85α; assay type: biochemical; details: 10 μM peptide (PepC +, Pep9 ++), 1 h
Experimental: as §1, §2

In the case of “SAEGYQYRALYD [Pep1, peptide found on the p85α SH3 domain; selected as the control named PepC]”, the ELISA value (purified NLRP6; replicate 1) is reported as 0.12, the ELISA value (purified NLRP6; replicate 2) is reported as 0.10 and the ELISA value (purified NLRP6; replicate 3) is reported as 0.06. It also gave a Relative cell viability (U251 cells; 5 μM, replicate 1) of 1.01, a Relative cell viability (U251 cells; 5 μM, replicate 2) of 1.04 and a Relative cell viability (U251 cells; 5 μM, replicate 3) of 0.94. The Relative cell viability (U251 cells; 10 μM, replicate 1) was 0.88, the Relative cell viability (U251 cells; 10 μM, replicate 2) was 0.87 and the Relative cell viability (U251 cells; 10 μM, replicate 3) was 0.79. It also gave a Relative cell viability (U251 cells; 20 μM, replicate 1) of 0.99, a Relative cell viability (U251 cells; 20 μM, replicate 2) of 1.04 and a Relative cell viability (U251 cells; 20 μM, replicate 3) of 0.91. It also gave a Relative cell viability (U251 cells; 30 μM, replicate 1) of 1.05, a Relative cell viability (U251 cells; 30 μM, replicate 2) of 0.89 and a Relative cell viability (U251 cells; 30 μM, replicate 3) of 0.98. For the same sequence, the Relative cell viability (LN229 cells; concentration 5 (unit not given), replicate 1) was 0.87, the Relative cell viability (LN229 cells; concentration 5 (unit not given), replicate 2) was 0.87 and the Relative cell viability (LN229 cells; concentration 5 (unit not given), replicate 3) was 0.99. It also gave a Relative cell viability (LN229 cells; concentration 10 (unit not given), replicate 1) of 1.05, a Relative cell viability (LN229 cells; concentration 10 (unit not given), replicate 2) of 0.89 and a Relative cell viability (LN229 cells; concentration 10 (unit not given), replicate 3) of 0.97. It also gave a Relative cell viability (LN229 cells; concentration 20 (unit not given), replicate 1) of 0.94, a Relative cell viability (LN229 cells; concentration 20 (unit not given), replicate 2) of 0.96 and a Relative cell viability (LN229 cells; concentration 20 (unit not given), replicate 3) of 1.01. For the same sequence, the Relative cell viability (LN229 cells; concentration 30 (unit not given), replicate 1) was 0.95, the Relative cell viability (LN229 cells; concentration 30 (unit not given), replicate 2) was 0.96 and the Relative cell viability (LN229 cells; concentration 30 (unit not given), replicate 3) was 1.02. The Relative cell viability (HS683 cells; 5 μM, replicate 1) was 0.98, the Relative cell viability (HS683 cells; 5 μM, replicate 2) was 0.96 and the Relative cell viability (HS683 cells; 5 μM, replicate 3) was 0.94. The Relative cell viability (HS683 cells; 10 μM, replicate 1) was 0.96, the Relative cell viability (HS683 cells; 10 μM, replicate 2) was 0.95 and the Relative cell viability (HS683 cells; 10 μM, replicate 3) was 0.91. It also gave a Relative cell viability (HS683 cells; 20 μM, replicate 1) of 0.94, a Relative cell viability (HS683 cells; 20 μM, replicate 2) of 0.90 and a Relative cell viability (HS683 cells; 20 μM, replicate 3) of 0.89. For the same sequence, the Relative cell viability (HS683 cells; 30 μM, replicate 1) was 0.92, the Relative cell viability (HS683 cells; 30 μM, replicate 2) was 0.88 and the Relative cell viability (HS683 cells; 30 μM, replicate 3) was 0.85. The nude mice survival ([1]; terminated Day 80, mouse 1) was 60 days, the nude mice survival ([1]; terminated Day 80, mouse 2) was 61 days and the nude mice survival ([1]; terminated Day 80, mouse 3, >= is status 0 (live)) was 59 days. The nude mice survival ([1]; terminated Day 80, mouse 4, >= is status 0 (live)) was 58 days, the nude mice survival ([1]; terminated Day 80, mouse 5, >= is status 0 (live)) was 58 days and the nude mice survival ([1]; terminated Day 80, mouse 6, >= is status 0 (live)) was 62 days. The “ELISA value (NLRP6 binding to p85α)” value (NLRP6/p85α interaction; replicate 1, no peptide 2.20) was 1.90, the “ELISA value (NLRP6 binding to p85α)” value (NLRP6/p85α interaction; replicate 2, no peptide 2.10) was 2.05 and the “ELISA value (NLRP6 binding to p85α)” value (NLRP6/p85α interaction; replicate 3, no peptide 2.45) was 1.80.
